# Source: patent US20080004281A1, “METHODS FOR THE MODULATION OF CRP BY THE SELECTIVE MODULATION OF PPAR DELTA” (KALYPSYS, INC., priority 2006, published 2008)
# System: plasma CRP
# Test: Plasma CRP in hyperlipidemic obese rhesus macaques, dose-escalating treatment
# Format: in vivo
# Description: In the present study, n=6 male obese rhesus macaques were selected for the study and prepared with 4 weeks of diet run-in (week −4 to week 0). At week 0, blood samples were taken in order to determine baseline plasma levels of CRP were measured prior to beginning dosage with Compound 1 as tosylate salt. Dosage began on the same day at 6 mg/kg/day in divided doses, given with food, and continued for four weeks. Dose was subsequently escalated at 4-week intervals to 12 mg/kg/d, 24 mg/kg/d, and finally 48 mg/kg/day. Plasma samples were taken at the close of each 4-week regimen, and a final sample was taken after 4 weeks of washout following discontinuation of dosing.
# Quantitative measurements of plasma CRP in each sample taken were made by LabCorp, Inc. (Laboratory Corporation of America) by a multi-calibrator based high sensitivity wide ranged method using a immunoturbidometric assay. The limit of quantitation for the assay was 0.05 mg/dL and the highest point on the calibrator was 32 mg/dL. Mean values as percent change from baseline, and standard deviation as percent change from baseline, were calculated across the group and are shown in Table 2. Mean values for weeks 8-16 fell below the limit of quantiatation, and no data could therefore be reported for the standard deviation.
smiles,measurement,setting,value
"C[C@@H]1CN(c2ccc(OC(F)(F)F)cc2)C[C@H](C)N1S(=O)(=O)c1cccc2c1CC(C(=O)O)C2 (stereo partly drawn) [Compound 1, 4-[cis-2,6-Dimethyl-4-(4-trifluoromethoxy-phenyl)-piperazine-1-sulfonyl]-indan-2-carboxylic acid]",plasma CRP change,"over 16 weeks of dose-escalating treatment, hyperlipidemic rhesus macaques",significantly reduced
same,CRP levels during the washout period,washout period after 16 weeks of dosing,reverted back to the pre-treatment levels
same,Mean Plasma CRP,"week 4, 6 mg/kg per day in divided doses with food, as tosylate salt, n=6 male obese rhesus macaques, baseline week 0 = 0.233",0.166 mg/dL
same,Mean Plasma CRP,"week 8, 12 mg/kg per day, as tosylate salt, LOQ 0.05",< 0.05 mg/dL
same,Mean Plasma CRP,"week 12, 24 mg/kg per day, as tosylate salt, LOQ 0.05",< 0.05 mg/dL
same,Mean Plasma CRP,"week 16, 48 mg/kg per day, as tosylate salt, LOQ 0.05",< 0.05 mg/dL
same,Mean Plasma CRP,"week 20, after 4 weeks of washout following discontinuation of dosing (dose 0)",0.183 mg/dL
